The values below come from patent US20240150377A1, “MODULATORS OF CYSTIC FIBROSIS TRANSMEMBRANE CONDUCTANCE REGULATOR” (VERTEX PHARMACEUTICALS INCORPORATED, priority 2020, published 2024).

For this test, the target named is T1, CFTR (Homo sapiens, UniProt P13569, DEL508-508).
T1 construct: endogenous in cells; host or cells: primary human bronchial epithelial cells from CF subjects (F508del/MF-HBE), differentiated at air-liquid interface
The test can be described thus: HBE assay: Ussing chamber assay of CFTR-mediated short-circuit currents. In kind it is cell-based. The conditions noted are these: for pEC50: read-out: HBE EC50. In a few lines: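 CFTR-mediated Isc (μA/cm²) equals the peak response to apical 20 μM forskolin minus the residual after a 20 μM each BPO/GlyH-101/CFTR inhibitor 172 cocktail, recorded in Ussing chambers at Vhold 0 mV, 37 °C, pH 7.4, with 30 μM apical amiloride. Cells were F508del/MF HBE cultures preincubated 18-24 h with corrector (concentration range or 10 μM) plus 1 μM ivacaftor in 20% human serum.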

Setting [1] is: HBE assay, 10 μM, read-out: HBE Activity at 10 μM (%).
Setting [2] is: Table 11, read-out: HBE Max Activity (%).
The mark [3] stands for this setting: Table 10, at 10 μM, read-out: HBE activity at 10 (μM) (%).
Where [4] appears, read: Table 10, read-out: HBE Max activity (%).
Where [5] appears, read: HBE assay, read-out: HBE Max activity (%).
Where [6] appears, read: Table 12, read-out: HBE Max Activity (%).
Setting [7] is: Table 12, at 10 μM, read-out: HBE Activity at 10 μM (%).
Where [8] appears, read: Table 11, at 10 μM, read-out: HBE Activity at 10 μM (%).
[9] abbreviates: Table 13, at 10 μM, read-out: HBE Activity at 10 μM (%).

Molecules are shown by their SMILES. pEC50: −log10 of the molar value. Where two headings read alike, the source gives them in different places. Where only a bound is given, the exact number is not on record here.

T1 sequence (P13569 with tags, fused parts or gaps DEL508-508): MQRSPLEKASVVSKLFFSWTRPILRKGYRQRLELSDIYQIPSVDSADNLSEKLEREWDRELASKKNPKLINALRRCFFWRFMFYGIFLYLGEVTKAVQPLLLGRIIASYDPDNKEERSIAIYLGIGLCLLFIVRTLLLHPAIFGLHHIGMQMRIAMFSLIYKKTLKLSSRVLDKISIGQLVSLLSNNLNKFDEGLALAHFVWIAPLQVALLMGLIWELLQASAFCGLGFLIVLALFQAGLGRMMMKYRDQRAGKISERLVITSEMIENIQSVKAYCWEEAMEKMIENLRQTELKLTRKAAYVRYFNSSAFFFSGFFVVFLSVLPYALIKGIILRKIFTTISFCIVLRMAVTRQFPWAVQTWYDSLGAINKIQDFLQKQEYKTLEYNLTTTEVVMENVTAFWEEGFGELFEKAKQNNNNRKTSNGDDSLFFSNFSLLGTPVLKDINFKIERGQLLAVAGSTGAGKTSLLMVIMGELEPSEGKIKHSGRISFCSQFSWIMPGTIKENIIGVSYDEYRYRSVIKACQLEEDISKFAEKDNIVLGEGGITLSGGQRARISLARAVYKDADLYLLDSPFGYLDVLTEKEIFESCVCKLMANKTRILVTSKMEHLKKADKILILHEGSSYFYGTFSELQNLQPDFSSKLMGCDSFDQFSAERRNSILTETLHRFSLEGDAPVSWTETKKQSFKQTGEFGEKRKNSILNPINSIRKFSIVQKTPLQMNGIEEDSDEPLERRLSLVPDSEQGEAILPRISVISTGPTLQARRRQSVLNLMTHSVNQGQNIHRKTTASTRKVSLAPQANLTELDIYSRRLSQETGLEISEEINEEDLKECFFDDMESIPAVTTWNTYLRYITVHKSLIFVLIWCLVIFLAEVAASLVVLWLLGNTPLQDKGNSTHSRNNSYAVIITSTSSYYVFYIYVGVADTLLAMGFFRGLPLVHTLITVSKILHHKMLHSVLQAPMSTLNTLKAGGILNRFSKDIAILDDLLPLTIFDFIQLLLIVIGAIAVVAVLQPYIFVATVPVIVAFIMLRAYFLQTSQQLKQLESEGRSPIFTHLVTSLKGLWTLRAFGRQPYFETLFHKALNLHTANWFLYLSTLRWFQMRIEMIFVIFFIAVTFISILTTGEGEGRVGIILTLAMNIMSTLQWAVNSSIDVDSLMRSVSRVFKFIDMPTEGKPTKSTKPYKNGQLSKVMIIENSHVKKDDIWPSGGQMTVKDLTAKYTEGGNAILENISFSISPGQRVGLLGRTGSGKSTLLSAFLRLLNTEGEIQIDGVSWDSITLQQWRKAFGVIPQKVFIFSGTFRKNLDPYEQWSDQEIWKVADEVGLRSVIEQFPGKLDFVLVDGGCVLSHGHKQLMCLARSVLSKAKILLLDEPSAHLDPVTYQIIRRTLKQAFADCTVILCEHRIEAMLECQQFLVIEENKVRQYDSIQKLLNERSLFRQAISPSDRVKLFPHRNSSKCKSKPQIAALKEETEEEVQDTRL

On to `COC[C@H]1CCCCN1c1cncc(CN2C(=O)c3cccc(c3)S(=O)(=O)Nc3nc(cc(-c4c(C)cccc4C)n3)OC[C@H]2CC(C)(C)C)n1` [Compound 1538], for which the activation at 10 µM (read-out: HBE Activity at 10 μM (%)) is more than 60%. Regarding `CC(=O)N(C)c1cnc(CN2C(=O)c3cccc(c3)S(=O)(=O)Nc3nc(cc(-c4c(C)cccc4C)n3)OC[C@H]2CC(C)(C)C)nc1` [Compound 1516], the activation at 10 µM under setting [1] is more than 60%. With `Cc1cccc(C)c1-c1cc2nc(n1)NS(=O)(=O)c1cccc(c1)C(=O)N(CC1CCCOC1)[C@H](CC(C)(C)C)CO2` (some centres unmarked) [Compound 818], the negative logarithm of the EC50 (pEC50) (Table 11) was more than 6.00. In addition, the Emax under setting [2] is more than 60%.

In the case of `Cc1cccc(C)c1-c1cc2nc(n1)NS(=O)(=O)c1cccc(c1)C(=O)N(Cc1nccc(N(C)CC(C)(C)C)n1)[C@H](CC(C)(C)C)CO2` [Compound 650], where the note is “Table 11”, the pEC50 was more than 6.00. Besides, the Emax under setting [2] was more than 60%. On to `Cc1cccc(C)c1-c1cc2nc(n1)NS(=O)(=O)c1cccc(c1)C(=O)N(Cc1ncccc1CCC(C)(C)ON)[C@H](CC(C)(C)C)CO2` [Compound 771], for which the activation at 10 µM under setting [3] was more than 60%. Further, the pEC50 (Table 10) is more than 6.00. Further, the Emax under setting [4] is more than 60%.

In the case of `COc1cncc(CN2C(=O)c3cccc(c3)S(=O)(=O)Nc3nc(cc(-c4c(C)cccc4C)n3)OC[C@H]2CC(C)(C)C)n1` [Compound 884], the pEC50 (Table 11) was more than 6.00. Further, under setting [2], the Emax was more than 60%. As to `Cc1cccc(C)c1-c1cc2nc(n1)NS(=O)(=O)c1cccc(c1)C(=O)N(CC1CCCCO1)[C@H](CC(C)(C)C)CO2` (some centres unmarked) [Compound 833], under setting [4], the Emax is more than 60%. As for `CCOc1cnc(CN2C(=O)c3cccc(c3)S(=O)(=O)Nc3nc(cc(-c4c(C)cccc4C)n3)OC[C@H]2CC2CC2)nc1` [Compound 1482], the pEC50 (HBE assay) is more than 6.00. For the same molecule, the Emax under setting [5] is more than 60%.

On to `Cc1cccc(C)c1-c1cc2nc(n1)NS(=O)(=O)c1cccc(c1)C(=O)N(Cc1cncc(NC3CCCC34CCC4)n1)[C@H](CC(C)(C)C)CO2` (some centres unmarked) [Compound 1348], for which the pEC50 (HBE assay) is more than 6.00. Also, under setting [5], the Emax was more than 60%. For `Cc1cccc(C(C)C)c1-c1cc2nc(n1)NS(=O)(=O)c1cccc(c1)C(=O)N(Cc1cnc(C3CCOCC3)cn1)[C@H](CC(C)(C)C)CO2` [Compound 1064], the pEC50 (Table 12) is more than 6.00. Moreover, under setting [6], the Emax is more than 60%. For the molecule `Cc1cccc(C)c1-c1cc2nc(n1)NS(=O)(=O)c1cccc(c1)C(=O)N(Cc1ccc(C3CCCCC3)nc1)[C@H](CC(C)(C)C)CO2` [Compound 882], the activation at 10 µM under setting [7] was more than 600%. As for `Cc1cccc(C)c1-c1cc2nc(n1)NS(=O)(=O)c1cccc(c1)C(=O)N(Cc1ccn(CC(C)C)n1)[C@H](CC(C)(C)C)CO2` [Compound 454], the pEC50 (Table 12) is more than 6.00. In addition, the Emax under setting [6] was more than 60%. Regarding `Cc1ccc(C)c(-c2cc3nc(n2)NS(=O)(=O)c2cccc(c2)C(=O)N(Cc2ccc(N4CCCCC4)cn2)[C@H](CC(C)(C)C)CO3)c1C` [Compound 902], under setting [2], the Emax was less than 30%.

`Cc1cccc(O)c1-c1cc2nc(n1)NS(=O)(=O)c1cccc(c1)C(=O)N(Cc1ccc(N3CCOCC3)cn1)[C@H](CC(C)(C)C)CO2` [Compound 333]: under setting [8], the activation at 10 µM fell in the range of 30 to 60%. For the molecule `Cc1cccc(C)c1-c1cc2nc(n1)NS(=O)(=O)c1cccc(c1)C(=O)N(Cc1ccc(C(C)(C)C)nc1C)[C@H](CC(C)(C)C)CO2` [Compound 528], the Emax under setting [4] is more than 60%. Turning to `Cc1cccc(C)c1-c1cc2nc(n1)NS(=O)(=O)c1cccc(c1)C(=O)N(Cc1ccc([Si](C)(C)C)cc1)[C@H](CC(C)(C)C)CO2` [Compound 795], under setting [3], the activation at 10 µM was more than 60%. Take `Cc1cccc(C)c1-c1cc2nc(n1)NS(=O)(=O)c1cccc(c1)C(=O)N(Cc1ccc(-c3cc[nH]n3)cc1)[C@H](CC(C)(C)C)CO2` [Compound 290]: the activation at 10 µM under setting [3] was more than 60%.

`Cc1cccc(C)c1-c1cc2nc(n1)NS(=O)(=O)c1cccc(c1)C(=O)N(CC(=O)N1CCc3ccccc3C1C)[C@H](CC(C)(C)C)CO2` (some centres unmarked) [Compound 211]: the activation at 10 µM under setting [9] is more than 600%. Turning to `COCCN(CC(C)C)c1cccc(CN2C(=O)c3cccc(c3)S(=O)(=O)Nc3nc(cc(-c4c(C)cccc4C)n3)OC[C@H]2CC(C)(C)C)n1` [Compound 1372], the pEC50 (HBE assay) is more than 6.00. Besides, the Emax under setting [5] was more than 60%. Turning to `Cc1cccc(C)c1-c1cc2nc(n1)NS(=O)(=O)c1cccc(c1)C(=O)N(CC1CCN(CCC(C)(C)C)C1=O)[C@H](CC(C)(C)C)CO2` (some centres unmarked) [Compound 652], the activation at 10 µM under setting [8] was more than 60%. Also, for the setting “Table 11”, the negative-log EC50 (pEC50) is more than 6.00. Further, under setting [2], the Emax was more than 60%. On to `Cc1cccc(C)c1-c1cc2nc(n1)NS(=O)(=O)c1cccc(c1)C(=O)N(Cc1ccc(N(C)C)nc1)[C@H](CC(C)(C)C)CO2` [Compound 529], for which the pEC50 (Table 10) is more than 6.00. For the same molecule, under setting [4], the Emax is more than 60%. In the case of `Cc1cccc(C)c1-c1cc2nc(n1)NS(=O)(=O)c1cccc(c1)C(=O)N(Cc1ncccc1N(C)C)[C@H](CC(C)(C)C)CO2` [Compound 379], for the setting “Table 10”, the pEC50 was more than 6.00. For the same molecule, the Emax under setting [4] was more than 60%. On to `Cc1cccc(C)c1-c1cc2nc(n1)NS(=O)(=O)c1cccc(c1)C(=O)N(Cc1ncc(N3CCC4(CC3)CC4)cn1)[C@H](CC(C)(C)C)CO2` [Compound 708], for which the pEC50 (Table 11) is 5.52 to 6.00. Under setting [2], the Emax was more than 60%. `Cc1cccc(C)c1-c1cc2nc(n1)NS(=O)(=O)c1cccc(c1)C(=O)N(Cc1ccc3c(C4CC4)cn(C)c3n1)[C@H](CC(C)(C)C)CO2` [Compound 1303, (11R)-12-[(3-Cyclopropyl-1-methyl-pyrrolo[2,3-b]pyridin-6-yl)methyl]-6-(2,6-dimethylphenyl)-11-(2,2-dimethylpropyl)-2,2-dioxo-9-oxa-2λ^6-thia-3,5,12,19-tetrazatricyclo[12.3.1.14,8]nonadeca-1(18),4(19),5,7,14,16-hexaen-13-one]: the activation at 10 µM under setting [1] is more than 60%. Consider `Cc1cccc(C)c1-c1cc2nc(n1)NS(=O)(=O)c1cccc(c1)C(=O)N(Cc1ccc(C3CCCCO3)cn1)[C@H](CC(C)(C)C)CO2` (some centres unmarked) [Compound 707], for which the negative-log EC50 (pEC50) (Table 12) was more than 6.00. For the same molecule, the Emax under setting [6] is more than 60%.

Regarding `Cc1cccc(C)c1-c1cc2nc(n1)NS(=O)(=O)c1cccc(c1)C(=O)N(Cc1cccc(N(C)C)n1)[C@H](CC(C)(C)C)CO2` [Compound 491], the activation at 10 µM under setting [3] was more than 60%. Further, under “Table 10”, the pEC50 is more than 6.00. Besides, the Emax under setting [4] was more than 60%. `Cc1cccc(C)c1-c1cc2nc(n1)NS(=O)(=O)c1cccc(c1)C(=O)N(CC(=O)N(C)CCN(C)C)[C@H](CC(C)(C)C)CO2` [Compound 224]: the activation at 10 µM under setting [7] is more than 600%. `CCNc1cccc(CN2C(=O)c3cccc(c3)S(=O)(=O)Nc3nc(cc(-c4c(C)cccc4C)n3)OC[C@H]2CC(C)(C)C)n1` [Compound 738]: the pEC50 (Table 11) is more than 6.00. Under setting [2], the Emax is more than 60%. Consider `Cc1cccc(C)c1-c1cc2nc(n1)NS(=O)(=O)c1cccc(c1)C(=O)N(Cc1cccc(N(C)C3CCCC3)n1)[C@H](CC(C)(C)C)CO2` [Compound 1355], for which the pEC50 (HBE assay) was more than 6.00. Besides, the Emax under setting [5] was more than 60%.

Take `Cc1cccc(C)c1-c1cc2nc(n1)NS(=O)(=O)c1cccc(c1)C(=O)N(CC(=O)N1CCC(C(C)(C)C)CC1)[C@H](CC(C)(C)C)CO2` [Compound 210]: the activation at 10 µM under setting [9] is more than 600%.

Consider `Cc1cccc(C)c1-c1cc2nc(n1)NS(=O)(=O)c1cccc(c1)C(=O)N(Cc1nc(OCC(C)C)ccc1F)[C@H](CC(C)(C)C)CO2` [Compound 1376], for which, for the setting “HBE assay”, the pEC50 was more than 6.00. Besides, the Emax under setting [5] is more than 60%. In the case of `Cc1cccc(C)c1-c1cc2nc(n1)NS(=O)(=O)c1cccc(c1)C(=O)N(Cc1ncccc1O)[C@H](CC(C)(C)C)CO2` [Compound 54, (11R)-6-(2,6-Dimethylphenyl)-11-(2,2-dimethylpropyl)-12-[(3-hydroxy-2-pyridyl)methyl]-2,2-dioxo-9-oxa-2λ^6-thia-3,5,12,19-tetrazatricyclo[12.3.1.14,8]nonadeca-1(18),4(19),5,7,14,16-hexaen-13-one], the pEC50 (Table 10) is more than 6.00. Also, under setting [4], the Emax is more than 60%.

On to `Cc1cc(N(C)C)cnc1CN1C(=O)c2cccc(c2)S(=O)(=O)Nc2nc(cc(-c3c(C)cccc3C)n2)OC[C@H]1CC(C)(C)C` [Compound 494], for which, under “Table 10”, the pEC50 was more than 6.00. Also, under setting [4], the Emax was more than 60%. In the case of `Cc1cccc(C)c1-c1cc2nc(n1)NS(=O)(=O)c1cccc(c1)C(=O)N(Cc1nccc(N(C)C3CC4(CCC4)C3)n1)[C@H](CC(C)(C)C)CO2` [Compound 445], the pEC50 (Table 12) was more than 6.00. The Emax under setting [6] is more than 60%. For `Cc1ccc(CN2C(=O)c3cccc(c3)S(=O)(=O)Nc3nc(cc(-c4c(C)cccc4C)n3)OC[C@H]2CC(C)(C)C)nc1` [Compound 500], the pEC50 (Table 10) is more than 6.00. The Emax under setting [4] is more than 60%. In the case of `Cc1cccc(C)c1-c1cc2nc(n1)NS(=O)(=O)c1cccc(c1)C(=O)N(Cc1ccccc1-c1c(C)n[nH]c1C)[C@H](CC(C)(C)C)CO2` [Compound 306], the pEC50 (Table 10) was more than 6.00. Under setting [4], the Emax was more than 60%. As to `Cc1cccc(C)c1-c1cc2nc(n1)NS(=O)(=O)c1cccc(c1)C(=O)N(Cc1cccc(N3CCC34CCOCC4)n1)[C@H](CC(C)(C)C)CO2` [Compound 536], the activation at 10 µM under setting [9] is more than 600%. The pEC50 (Table 13) is more than 6.00. For the same molecule, the Emax (Table 13, read-out: HBE Max Activity (%)) was more than 60%.

In general, pEC50 refers to the EC50 on a negative log10 scale, so that one unit is a factor of ten.
